Data reported in the NIST ThermoML archive (doi:10.1016/j.jct.2009.06.019).

What was measured:
[1] = 101.33 kPa, Liquid, Vibrating tube method
[2] = xn = mol fraction of the nth substance listed; settings: 101.3 kPa, Liquid, Vibrating tube method

CN1CCN(C)C1=O [1,3-dimethyl-2-imidazolidinone]
[1]
Settings | mass density [kg/m3]
278.15 K | 1069.3
288.15 K | 1060.43
298.15 K | 1051.6
308.15 K | 1042.79
313.15 K | 1038.38
318.15 K | 1034

CN1CCN(C)C1=O [1,3-dimethyl-2-imidazolidinone] + O
mass density [kg/m3], [2]
Settings | 278.15 K | 288.15 K | 298.15 K | 308.15 K | 313.15 K | 318.15 K
x1 = 0.000904 | 1000.51 | 999.59 | 997.49 | 994.45 | 992.61 | 990.61
x1 = 0.001349 | 1000.75 | 999.82 | 997.72 | 994.65 | 992.81 | 990.8
x1 = 0.001765 | 1000.99 | 1000.04 | 997.92 | 994.84 | 992.99 | 990.96
x1 = 0.002486 | 1001.42 | 1000.44 | 998.29 | 995.19 | 993.33 | 991.29
x1 = 0.003566 | 1002.08 | 1001.05 | 998.84 | 995.7 | 993.82 | 991.77
x1 = 0.004326 | 1002.53 | 1001.45 | 999.22 | 996.05 | 994.15 | 992.09
x1 = 0.005478 | 1003.25 | 1002.09 | 999.81 | 996.59 | 994.68 | 992.59
x1 = 0.006268 | 1003.72 | 1002.53 | 1000.22 | 996.97 | 995.04 | 992.94
x1 = 0.006996 | 1004.16 | 1002.93 | 1000.57 | 997.3 | 995.36 | 993.25
x1 = 0.008039 | 1004.82 | 1003.54 | 1001.14 | 997.82 | 995.85 | 993.72
x1 = 0.008854 | 1005.33 | 1004.01 | 1001.57 | 998.22 | 996.23 | 994.08
